# PMC9241695, “Selective Metal Chelation by a Thiosemicarbazone Derivative Interferes with Mitochondrial Respiration and Ribosome Biogenesis in Candida albicans” (Microbiology Spectrum, 2022)
# Columns and labels:
# C. albicans SC5314 [1] = assay: Antifungal susceptibility testing, microbroth dilution MIC; format: cell-based; conditions: Candida albicans, SC5314; C. albicans wild-type strain; RPMI1640, 35°C, 24 h; read-out: MIC (μg/mL) against fungi SC5314
# Excerpt: (§1) Compound library. The thiosemicarbazone derivatives Triapine and COTI-2 were purchased from Med Chem Express (MCE). The other 87 thiosemicarbazones used in this study were previously synthesized by our collaborators (1, 2). Their structures are shown in Table 1 and Table S1 to help the reader clearly understand the relationship between structure and activity.
# (§2) Strains and culture conditions. Clinically derived C. albicans isolates, including G5, F5, and Gu5, were kindly provided by Professor Joachim Morschhäuser of the University of Würzburg. Other clinical C. albicans isolates were kindly donated by Professor Qingguo Qi of Shandong University and Qianfoshan Hospital of Shandong Province Other Candida strains were obtained from Jinan Central Hospital.
# (§3) The zap1 mutant and its complemented strain were kindly provided by Professor Aaron P. Mitchell of Carnegie Mellon University (3). The C. neoformans strains used in this study was kindly donated by Professor Guojian Liao of Southwest University and A. fumigatus strain used in this study was provided by Professor Ling Lu of Nanjing Normal University. Before in vitro and in vivo experiments, all C. albicans strains were grown on YPD agar plates. After culturing at 30°C for 24 h, colonies of each strain were cultured in liquid YPD medium at 30°C with continuous shaking […]
# (§4) Antifungal susceptibility testing. To determine in vitro antifungal activities, the microbroth dilution method was carried out in RPMI1640 medium according to the guidelines of the Clinical and Laboratory Standards Institute (4, 5). The initial concentration in RPMI1640 medium was 1 × 10^3 CFU/mL for the C. albicans and C. neoformans suspensions but 1 × 10^4 CFU/mL for A. fumigatus. The range of final drug concentrations was 0.0156–64 μg/mL. The plates were incubated at35°C for 24 […]
# (§5) h (for C. albicans, C. krusei, C. tropicalis, C. parapsilosis) or 48 h (for C. neoformans, A. fumigatus). The MIC was determined based on visible growth inhibition compared with the control. All experiments were performed in duplicate. […]
# A. fumigatus AF293 = assay: as above; format: cell-based; conditions: Aspergillus fumigatus, AF293; standard strain of A. fumigatus; 48 h; read-out: MIC (μg/mL) against fungi AF293
# Excerpt: as §1, §2
# (§6) The zap1 mutant and its complemented strain were kindly provided by Professor Aaron P. Mitchell of Carnegie Mellon University (3). The C. neoformans strains used in this study was kindly donated by Professor Guojian Liao of Southwest University and A. fumigatus strain used in this study was provided by Professor Ling Lu of Nanjing Normal University. […]
# as §4, §5
# C. neoformans H99 = assay: as above; format: cell-based; conditions: Cryptococcus neoformans, H99; C. neoformans wild-type strain; 48 h; read-out: MIC (μg/mL) against fungi H99
# Excerpt: as §1, §2, §6, §4, §5
# C. albicans G5 = assay: microbe, parasite or virus in culture; format: cell-based; conditions: Candida albicans; C. albicans G5; read-out: MIC80
# Excerpt: as §1, §2, §3, §4, §5
# C. albicans Gu5 = assay: microbe, parasite or virus in culture; format: cell-based; conditions: Candida albicans; C. albicans Gu5; read-out: MIC80
# Excerpt: as §1, §2, §3, §4, §5
# A. fumigatus 1161 = assay: Microbroth dilution MIC80; format: cell-based; conditions: Aspergillus fumigatus; A. fumigatus 1161; read-out: MIC80
# Excerpt: as §1, §2, §3, §4, §5
# C. albicans 11e = assay: Microbroth dilution MIC80; format: cell-based; conditions: Candida albicans; C. albicans 11e; read-out: MIC80
# Excerpt: as §1, §2, §3, §4, §5
# C. albicans 11f = assay: Microbroth dilution MIC80; format: cell-based; conditions: Candida albicans; C. albicans 11f; read-out: MIC80
# Excerpt: as §1, §2, §3, §4, §5
# C. albicans 24g = assay: Microbroth dilution MIC80; format: cell-based; conditions: Candida albicans; C. albicans 24g; read-out: MIC80
# Excerpt: as §1, §2, §3, §4, §5
# C. albicans 28A = assay: Microbroth dilution MIC80; format: cell-based; conditions: Candida albicans; C. albicans 28A; read-out: MIC80
# Excerpt: as §1, §2, §3, §4, §5
# C. albicans 28D = assay: Microbroth dilution MIC80; format: cell-based; conditions: Candida albicans; C. albicans 28D; read-out: MIC80
# Excerpt: as §1, §2, §3, §4, §5
# C. albicans 28I = assay: Microbroth dilution MIC80; format: cell-based; conditions: Candida albicans; C. albicans 28I; read-out: MIC80
# Excerpt: as §1, §2, §3, §4, §5
# C. albicans CA1 = assay: Microbroth dilution MIC80; format: cell-based; conditions: Candida albicans; C. albicans CA1; read-out: MIC80
# Excerpt: as §1, §2, §3, §4, §5
# C. albicans CA3 = assay: Microbroth dilution MIC80; format: cell-based; conditions: Candida albicans; C. albicans CA3; read-out: MIC80
# Excerpt: as §1, §2, §3, §4, §5
# C. albicans CA4 = assay: Microbroth dilution MIC80; format: cell-based; conditions: Candida albicans; C. albicans CA4; read-out: MIC80
# Excerpt: as §1, §2, §3, §4, §5
# C. albicans DSY654 = assay: Microbroth dilution MIC80; format: cell-based; conditions: Candida albicans
# Excerpt: as §1, §2, §3, §4, §5
# C. albicans F5 = assay: Microbroth dilution MIC80; format: cell-based; conditions: Candida albicans; C. albicans F5; read-out: MIC80
# Excerpt: as §1, §2, §3, §4, §5
# C. albicans YEM13 = assay: Microbroth dilution MIC80; format: cell-based; conditions: Candida albicans
# Excerpt: as §1, §2, §3, §4, §5
# C. albicans YEM15 = assay: Microbroth dilution MIC80; format: cell-based; conditions: Candida albicans; C. albicans YEM15; read-out: MIC80
# Excerpt: as §1, §2, §3, §4, §5
# C. neoformans 108 = assay: Microbroth dilution MIC80; format: cell-based; conditions: Cryptococcus neoformans; C. neoformans 108; read-out: MIC80
# Excerpt: as §1, §2, §3, §4, §5
# C. tropicalis CT2 = assay: Microbroth dilution MIC80; format: cell-based; conditions: Candida tropicalis; C. tropicalis CT2; read-out: MIC80
# Excerpt: as §1, §2, §3, §4, §5
# C. krusei CK1 = assay: Microbroth dilution MIC80; format: cell-based, Candida krusei; conditions: Pichia kudriavzevii; C. krusei CK1; read-out: MIC80
# Excerpt: as §1, §2, §3, §4, §5
# C. parapsilosis CP001 = assay: Microbroth dilution MIC80; format: cell-based, Candida parapsilosis; conditions: Lodderomyces parapsilosis; C. parapsilosis CP001; read-out: MIC80
# Excerpt: as §1, §2, §3, §4, §5
# C. albicans SC5314 [2] = assay: Drug resistance study by serial passage; format: cell-based, Candida albicans; conditions: RPMI 1640 medium, 40-day period, passages at 0.5 × MIC
# C. albicans SC5314 [3] = assay: G. mellonella infection model; format: in vivo, Galleria mellonella; conditions: 19ak 0.4 μg per larva, FLC 2 μg per larva
# Protocol: The G. mellonella infection model was used to evaluate the in vivo activity of 19ak in terms of survival, fungal burden, and histological features. A total of 60 larvae of similar size were selected and randomly allocated to four groups. The last right foreleg of each larva was injected with 10 μL of C. albicans SC5314 suspension (2 × 10^7 CFU/mL). Two hours after infection, the larvae were injected with 10 μL of drug or vehicle as follows for the four groups: 19ak (0.4 μg per larva), FLC (2 μg per larva), control (PBS), and blank control (no injection with C. albicans but injections of sterile PBS twice). The data for the blank control are not shown because this group survived well during the experiment. Failure to respond to light contact with forceps was considered a sign of larval death. In the survival assay, the number of surviving larvae in each group was calculated at the same time every day for 4 days.
# To determine fungal burden, larval infection and treatment were performed as described above with groups of 30 larvae each. Each day, five larvae were randomly selected from each group and homogenized with glass beads in 0.5 mL of sterile PBS. The homogenate was serially diluted with sterile PBS, and 5 μL was spread on a yeast-peptone-dextrose solid plate ([62]). Experiments were performed at least three times independently.
# We also conducted histopathological studies to explore the therapeutic effects of the drugs on G. mellonella fungal infection. First, the groups of larvae were infected as described above. After 48 h, three larvae from each group were randomly selected and fixed in 4% paraformaldehyde for sectioning and Periodic acid-Schiff (PAS) staining. The tissue was observed and photographed under an Olympus microscope with 40 × magnification (IX71, Olympus, Tokyo, Japan). The experiments were performed independently a minimum of three times.
structure (smiles),measurement,setting,value
"OC(Cn1cncn1)(Cn1cncn1)c1ccc(F)cc1F [FLC, fluconazole, reference compound]",MIC,C. albicans SC5314 [1],2 µg/mL
same,MIC,A. fumigatus AF293,> 64 µg/mL
same,MIC,C. neoformans H99,2 µg/mL
same,MIC80,C. albicans G5,> 128 µg/mL
same,MIC80,C. albicans Gu5,> 128 µg/mL
same,MIC80,A. fumigatus 1161,> 64 µg/mL
same,MIC80,C. albicans 11e,1 µg/mL
same,MIC80,C. albicans 11f,1 µg/mL
same,MIC80,C. albicans 24g,1 µg/mL
same,MIC80,C. albicans 28A,> 128 µg/mL
same,MIC80,C. albicans 28D,> 128 µg/mL
same,MIC80,C. albicans 28I,> 128 µg/mL
same,MIC80,C. albicans CA1,2 µg/mL
same,MIC80,C. albicans CA3,2 µg/mL
same,MIC80,C. albicans CA4,8 µg/mL
same,MIC80,C. albicans DSY654,0.25 µg/mL
same,MIC80,C. albicans F5,> 128 µg/mL
same,MIC80,C. albicans YEM13,64 µg/mL
same,MIC80,C. albicans YEM15,64 µg/mL
same,MIC80,C. neoformans 108,2 µg/mL
same,MIC80,C. tropicalis CT2,2 µg/mL
same,MIC80,C. krusei CK1,2 µg/mL
same,MIC80,C. parapsilosis CP001,1 µg/mL
same,Change of MIC after repeated exposure,C. albicans SC5314 [2],significant increase in the MIC value
same,Histopathology of infected larvae,"C. albicans SC5314 [3]; 48 h, PAS staining",fewer infected areas
same,Fungal burden of infected larvae,C. albicans SC5314 [3]; compared with the control group,greatly reduced the fungal burden
